# Measured values from paper PMC4912623, “A CD36 ectodomain mediates insect pheromone detection via a putative tunnelling mechanism” (Nature Communications, 2016).
# Target: T1, OR67d/ORCO (Drosophila melanogaster, UniProt Q9VT92)
# T1 construct: endogenous receptor in OR67d olfactory neurons in vivo (wild type, or snmp1 null rescued with transgenic SNMP1); with Odorant receptor coreceptor; Sensory neuron membrane protein 1
# Assay: single sensillum electrophysiology in flies
# Type: cell-based
# Conditions: v/v dilutions in paraffin oil, airstream
# T1 sequence (Q9VT92 whole entry): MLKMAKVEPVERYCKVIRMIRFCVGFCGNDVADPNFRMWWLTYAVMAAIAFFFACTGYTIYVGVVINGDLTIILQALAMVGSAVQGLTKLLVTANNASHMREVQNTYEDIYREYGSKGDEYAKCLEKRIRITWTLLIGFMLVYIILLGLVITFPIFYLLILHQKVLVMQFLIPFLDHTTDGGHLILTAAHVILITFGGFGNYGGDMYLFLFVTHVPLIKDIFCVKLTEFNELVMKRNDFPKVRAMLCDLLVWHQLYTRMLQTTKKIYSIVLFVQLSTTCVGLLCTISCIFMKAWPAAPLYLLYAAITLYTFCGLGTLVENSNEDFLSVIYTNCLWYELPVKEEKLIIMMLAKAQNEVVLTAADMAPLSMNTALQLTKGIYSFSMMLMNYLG
# T1 sequence (Q9VNB5 whole entry partner): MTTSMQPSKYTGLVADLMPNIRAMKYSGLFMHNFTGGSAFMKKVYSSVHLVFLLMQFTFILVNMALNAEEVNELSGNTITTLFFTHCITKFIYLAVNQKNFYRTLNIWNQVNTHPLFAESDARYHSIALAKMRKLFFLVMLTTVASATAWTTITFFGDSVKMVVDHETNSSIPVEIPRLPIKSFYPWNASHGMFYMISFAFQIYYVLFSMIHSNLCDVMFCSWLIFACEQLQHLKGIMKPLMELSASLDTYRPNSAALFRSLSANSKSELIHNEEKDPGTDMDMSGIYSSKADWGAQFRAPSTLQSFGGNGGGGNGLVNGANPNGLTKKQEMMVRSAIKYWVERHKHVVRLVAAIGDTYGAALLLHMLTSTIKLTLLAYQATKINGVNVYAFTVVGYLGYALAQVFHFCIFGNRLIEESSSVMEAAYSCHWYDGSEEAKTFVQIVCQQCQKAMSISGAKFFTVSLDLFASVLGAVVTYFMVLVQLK
# T1 sequence (Q9VDD3 whole entry partner): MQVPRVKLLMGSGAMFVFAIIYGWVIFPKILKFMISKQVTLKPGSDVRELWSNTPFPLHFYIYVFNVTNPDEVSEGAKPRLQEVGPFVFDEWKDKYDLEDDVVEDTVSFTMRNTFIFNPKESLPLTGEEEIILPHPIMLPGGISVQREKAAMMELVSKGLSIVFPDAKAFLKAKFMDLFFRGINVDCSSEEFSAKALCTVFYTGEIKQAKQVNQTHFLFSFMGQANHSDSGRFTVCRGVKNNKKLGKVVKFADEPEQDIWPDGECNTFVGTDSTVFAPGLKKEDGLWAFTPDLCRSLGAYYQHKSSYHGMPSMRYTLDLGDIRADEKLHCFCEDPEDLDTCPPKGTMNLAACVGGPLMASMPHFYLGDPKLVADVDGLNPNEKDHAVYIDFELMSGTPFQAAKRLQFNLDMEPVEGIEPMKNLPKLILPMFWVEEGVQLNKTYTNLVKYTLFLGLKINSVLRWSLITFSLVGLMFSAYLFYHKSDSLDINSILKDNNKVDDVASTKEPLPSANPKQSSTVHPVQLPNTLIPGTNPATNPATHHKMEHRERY
compound,measurement,value
"CCCCCC/C=C\CCCCCCCCCCOC(C)=O [cVA, (Z)-11-octadecenyl acetate]",spikes/s,Concentration–response curves of OR67d neurons to cVA in the indicated rescue genotypes
